Assay [1] addresses T1, human bradykinin 1 receptor (B1R) (Homo sapiens, UniProt P46663).
T1 construct: expressed in transfected cells; host or cells: CHO K1 cells
T1 sequence (P46663 1-353): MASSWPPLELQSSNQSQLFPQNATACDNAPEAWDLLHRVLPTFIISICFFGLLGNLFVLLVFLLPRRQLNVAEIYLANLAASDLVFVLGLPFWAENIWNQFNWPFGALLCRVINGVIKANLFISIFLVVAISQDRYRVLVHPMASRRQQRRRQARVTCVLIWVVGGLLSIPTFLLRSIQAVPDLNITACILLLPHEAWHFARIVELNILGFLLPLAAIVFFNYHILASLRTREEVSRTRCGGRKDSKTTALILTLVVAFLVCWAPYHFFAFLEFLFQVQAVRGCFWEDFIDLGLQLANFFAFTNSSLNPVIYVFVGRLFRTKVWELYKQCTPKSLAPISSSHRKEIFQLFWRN
The assay can be described thus: Functional investigation on the human bradykinin 1 receptor (B1R), Ca2+ FLIPR assay in CHO K1 hB1R cells. Format: cell-based. From the text: (§1) Functional Investigation on the Human Bradykinin 1 Receptor (B1R)
(§2) The agonistic or antagonistic action of substances can be determined on the bradykinin 1 receptor (B1R) of the human species and rats with the following assay. In accordance with this assay, the Ca^2+ inflow through the channel is quantified with the aid of a Ca^2=-sensitive dyestuff (type Fluo-4, Molecular Probes Europe BV, Leiden, Holland) in a fluorescent imaging plate reader (FLIPR, Molecular Devices, Sunnyvale, USA).
(§3) Chinese hamster ovary cells (CHO K1 cells) transfected stably with the human B1R gene (hB1R cells) or the B1R gene of the rat (rB1R cells) are used. For functional studies, these cells are plated out on black 96-well plates with a clear base (BD Biosciences, Heidelberg, Germany or Greiner, Frickenhausen, Germany) in a density of 20,000-35,000 cells/well. The cells are left overnight at 37° C. and 5% CO2 in culture medium (hB1R cells: Nutrient Mixture Ham's F12, Gibco Invitrogen GmbH, Karlsruhe, Germany or DMEM, Sigma-Aldrich, Taufkirchen, Germany; rB1R cells: D-MEM/F12, Gibco Invitrogen GmbH, Karlsruhe, Germany) with 10 vol. % of FBS (foetal bovine serum, Gibco Invitrogen GmbH, Karlsruhe, Germany or PAN Biotech GmbH, Aidenbach, Germany).
(§4) On the following day, the cells are loaded for 60 min at 37° C. with 2.13 μM Fluo-4 (Molecular Probes Europe BV, Leiden, The Netherlands) in HBSS buffer (Hank's buffered saline solution, Gibco Invitrogen GmbH, Karlsruhe, Germany) with 2.5 mM probenecid (Sigma-Aldrich, Taufkirchen, Germany) and 10 mM HEPES (Sigma-Aldrich, Taufkirchen, Germany). The plates are then washed 2× with HBSS buffer, and HBSS buffer which additionally contains 0.1% of BSA (bovine serum albumin; Sigma-Aldrich, Taufkirchen, Germany), 5.6 mM glucose and 0.05% of gelatine (Merck KGaA, Darmstadt, Germany) is added. After a further incubation of 20 minutes at room temperature, the plates are inserted into the FLIPR for the Ca^2+ measurement.
(§5) Alternatively, the plates are washed with buffer A (15 mM HEPES, 80 mM NaCl, 5 mM KCl, 1.2 mM CaCl2, 0.7 mM MgSO4, 2 g/l glucose, 2.5 mM probenecid), buffer A is added and the plates are loaded with 2.5 μM Fluo-4 and 0.025% of Pluronic F127 (Sigma-Aldrich, Taufkirchen, Germany). Thereafter, the cells are washed 2× with buffer A and incubated for 30 minutes with buffer A, which additionally contains 0.05% of BSA and 0.05% of gelatine, at room temperature and thereafter inserted into the FLIPR for the Ca^2+ measurement.
(§6) The Ca^2+-dependent fluorescence is measured before and after addition of substances (λex=488 nm, λem=540 nm). Quantification is by measurement of the highest fluorescence intensity (FC, fluorescence counts) over time.
(§7) The FLIPR protocol consists of 2 additions of substance. Test substances (10 μM) are first pipetted on to the cells and the Ca^2+ inflow is compared with the control (hB1R: Lys-Des-Arg^9-bradykinin >=50 nM; rB1R: Des-Arg^9-bradykinin 10 μM). This gives the information in % activation based on the Ca^2+ signal after addition of Lys-Des-Arg^9-bradykinin (>=50 nM) or Des-Arg^9-bradykinin (10 μM).
(§8) After incubation for 10-20 minutes, Lys-Des-Arg^9-bradykinin (hB1R) or Des-Arg^9-bradykinin (rB1R) is applied in the concentration of the EC80 and the inflow of Ca^2+ is likewise determined.
(§9) Antagonists lead to a suppression of the Ca^2+ inflow. % inhibition compared with the maximum achievable inhibition is calculated.
(§10) To determine the IC50 value, the substances are added in various concentrations. Duplicate or triplicate determinations (n=2 or n=3) are carried out, and these are repeated in at least one further independent experiment (N>=2).
(§11) Preferably, the compounds have a B1R antagonistic action on the human receptor and/or on the rat receptor. The following data are given by way of example in the following table: (In this, “B1R Ant. h” represents “B1R antagonism human” and “B1R Ant. r” represents “B1R antagonism rat”)

Assay [2] addresses T2, bradykinin 1 receptor (B1R) of the rat (Rattus norvegicus, UniProt P97583).
T2 construct: expressed in transfected cells; host or cells: CHO K1 cells
T2 sequence (P97583 1-337): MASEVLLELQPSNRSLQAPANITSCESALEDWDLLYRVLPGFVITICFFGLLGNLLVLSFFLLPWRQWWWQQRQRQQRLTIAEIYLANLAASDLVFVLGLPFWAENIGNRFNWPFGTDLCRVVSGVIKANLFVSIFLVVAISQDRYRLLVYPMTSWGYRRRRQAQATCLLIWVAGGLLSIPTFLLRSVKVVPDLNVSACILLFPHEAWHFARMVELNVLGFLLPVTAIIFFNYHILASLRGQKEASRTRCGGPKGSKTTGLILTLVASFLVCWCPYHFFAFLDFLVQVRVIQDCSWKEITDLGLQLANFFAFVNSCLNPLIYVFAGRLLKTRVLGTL
The assay is described as follows: Functional investigation on the rat bradykinin 1 receptor (B1R), Ca2+ FLIPR assay in CHO K1 rB1R cells. Format: cell-based.
From the text: as §1, §2, §3, §4, §5, §6, §7, §8, §9, §10, §11

The mark [3] stands for this setting: CHO-K1, B1R antagonism human, test substance 10 μM, Ca2+ FLIPR, CHO K1 hB1R cells, read-out: B1R Ant. h [10 μM] % Inhibition.
[4] abbreviates: CHO-K1, B1R antagonism rat, test substance 10 μM, Ca2+ FLIPR, CHO K1 rB1R cells, read-out: B1R Ant. r [10 μM] % Inhibition.
[5] abbreviates: CHO-K1, read-out: B1R Ant. h [10 μM] % Inhibition.
Where [6] appears, read: CHO-K1, read-out: B1R Ant. r [10 μM] % Inhibition.

Read-outs that look alike come from different tables or passages of the source.

Consider `CN(C)C(CCc1ccccc1)C1CCC(NC(=O)CNC(=O)c2nc(-c3ccc4c(c3)OCO4)no2)CC1` (stereo not shown) [Example 783, 3-benzo[1,3]dioxol-5-yl-[1,2,4]oxadiazole-5-carboxylic acid {[4-(1-dimethylamino-3-phenyl-propyl)-cyclohexylcarbamoyl]-methyl}-amide], for which the inhibition (as a rule, the relative decrease from the control value, in per cent) at 10 µM in assay [1] (setting [3]) was 45%; in assay [2] (setting [4]), -28%.

Consider `CN(C)C(CCc1ccccc1)C1CCC(NC(=O)CNC(=O)c2nc(-c3ccc(C(F)(F)F)cc3)no2)CC1` (stereo not shown) [Example 785, 3-(4-trifluoromethyl-phenyl)-[1,2,4]oxadiazole-5-carboxylic acid {[4-(1-dimethylamino-3-phenyl-propyl)-cyclohexylcarbamoyl]-methyl}-amide], for which the inhibition at 10 µM in assay [1] (setting [3]) was determined as 76%; in assay [2] (setting [4]), 32%.

Take `CN(C)C(c1ccccc1)C1CCC(NC(=O)CNC(=O)c2nc(-c3cc(Cl)cc(Cl)c3)no2)CC1` (stereo not shown) [Example 760, 3-(3,5-dichloro-phenyl)-[1,2,4]oxadiazole-5-carboxylic acid {[4-(dimethylamino-phenyl-methyl)-cyclohexylcarbamoyl]-methyl}-amide]: the inhibition at 10 µM is 66% in assay [1] (setting [3]) and -4% in assay [2] (setting [4]).

As to `CN(CCOCC(=O)NC1CCC(C(c2ccccc2)N2CCOCC2)CC1)S(=O)(=O)c1c(Cl)cc(Cl)cc1Cl` (stereo not shown) [Example 607, 2-{2-[methyl-(2,4,6-trichlorobenzenesulfonyl)-amino]-ethoxy}-N-[4-(morpholin-4-ylphenylmethyl)-cyclohexyl]-acetamide], the “B1R Ant. h [10 μM] % Inhibition” value in assay [1] (B1R antagonism human, test substance 10 μM, Ca2+ FLIPR, CHO K1 hB1R cells) is 12%. For the same compound, the “B1R Ant. r [10 μM] % Inhibition” value in assay [2] (B1R antagonism rat, test substance 10 μM, Ca2+ FLIPR, CHO K1 rB1R cells) came to 3%.

Regarding `CN(C)C(c1cccs1)C1CCC(NC(=O)CNC(=O)c2nc(-c3ccc(C(C)(C)C)cc3)no2)CC1` (stereo not shown) [Example 779, 3-(4-tert-butyl-phenyl)-[1,2,4]oxadiazole-5-carboxylic acid {[4-(dimethylamino-thiophen-2-yl-methyl)-cyclohexylcarbamoyl]-methyl}-amide], the results for the inhibition at 10 µM in assay [1] (setting [3]) and in assay [2] (setting [4]) were -10% and -13%, respectively.

As for `CN(C)C(c1ccccc1)C1CCC(NC(=O)CCNC(=O)c2nc(-c3cc(Cl)cc(Cl)c3)no2)CC1` (stereo not shown) [Example 761, 3-(3,5-dichloro-phenyl)-[1,2,4]oxadiazole-5-carboxylic acid {2-[4-(dimethylamino-phenyl-methyl)-cyclohexylcarbamoyl]-ethyl}-amide], the results for the inhibition at 10 µM in assay [1] (setting [5]) and in assay [2] (setting [6]) were 34% and 15%, respectively.

Turning to `CN(C)C(CCc1ccccc1)C1CCC(NC(=O)CNC(=O)c2nc(-c3ccccn3)no2)CC1` (stereo not shown) [Example 791, 3-pyridin-2-yl-[1,2,4]oxadiazole-5-carboxylic acid {[4-(1-dimethylamino-3-phenyl-propyl)-cyclohexylcarbamoyl]-methyl}-amide], the values for the inhibition at 10 µM in assay [1] (setting [5]) and in assay [2] (setting [6]) were -3% and 16%, respectively.

Take `COc1ccc(-c2noc(C(=O)NCCC(=O)NC3CCC(C(c4ccccc4)N(C)C)CC3)n2)cc1OC` (stereo not shown) [Example 774, 3-(3,4-dimethoxy-phenyl)-[1,2,4]oxadiazole-5-carboxylic acid {2-[4-(dimethylamino-phenyl-methyl)-cyclohexylcarbamoyl]-ethyl}-amide]: the inhibition at 10 µM was -8% in assay [1] (setting [3]) and 2% in assay [2] (setting [4]).

Consider `COc1ccccc1-c1noc(C(=O)NCC(=O)NC2CCC(C(c3ccccc3)N(C)C)CC2)n1` (stereo not shown) [Example 763, 3-(2-methoxy-phenyl)-[1,2,4]oxadiazole-5-carboxylic acid {[4-(dimethylamino-phenyl-methyl)-cyclohexylcarbamoyl]-methyl}-amide], for which the results for the inhibition at 10 µM in assay [1] (setting [3]) and in assay [2] (setting [4]) were -10% and 22%, respectively.

Take `Cc1cc(C)c(-c2noc(C(=O)NCC(=O)NC3CCC(C(c4ccccc4)N(C)C)CC3)n2)c(C)c1` (stereo not shown) [Example 772, 3-(2,4,6-trimethyl-phenyl)-[1,2,4]oxadiazole-5-carboxylic acid {[4-(dimethylamino-phenyl-methyl)-cyclohexylcarbamoyl]-methyl}-amide]: the inhibition at 10 µM in assay [1] (setting [3]) is 11%; in assay [2] (setting [4]), 41%.

Take `CN(C)C(c1ccccc1)C1CCC(NC(=O)CNC(=O)c2nc(-c3ccc(C(F)(F)F)cc3)no2)CC1` (stereo not shown) [Example 765, 3-(4-trifluoromethyl-phenyl)-[1,2,4]oxadiazole-5-carboxylic acid {[4-(dimethylamino-phenyl-methyl)-cyclohexylcarbamoyl]-methyl}-amide]: the inhibition at 10 µM amounted to 15% in assay [1] (setting [3]) and 29% in assay [2] (setting [4]).

Take `Cc1ccc(F)cc1-c1noc(C(=O)NCC(=O)NC2CCC(C(c3ccccc3)N(C)C)CC2)n1` (stereo not shown) [Example 767, 3-(5-fluoro-2-methyl-phenyl)-[1,2,4]oxadiazole-5-carboxylic acid {[4-(dimethylamino-phenyl-methyl)-cyclohexylcarbamoyl]-methyl}-amide]: the inhibition at 10 µM in assay [1] (setting [3]) was found to be 43%; in assay [2] (setting [4]), 17%.

Consider `CN(C)C(CCc1ccccc1)C1CCC(NC(=O)CNC(=O)c2nc(-c3cccs3)no2)CC1` (stereo not shown) [Example 784, 3-thiophen-2-yl-[1,2,4]oxadiazole-5-carboxylic acid {[4-(1-dimethylamino-3-phenyl-propyl)-cyclohexylcarbamoyl]-methyl}-amide], for which the inhibition at 10 µM in assay [1] (setting [3]) was 76%; in assay [2] (setting [4]), -1%.

Regarding `CN(C)C(CCc1ccccc1)C1CCC(NC(=O)CCNC(=O)c2nc(-c3ccc4c(c3)OCO4)no2)CC1` (stereo not shown) [Example 792, 3-benzo[1,3]dioxol-5-yl-[1,2,4]oxadiazole-5-carboxylic acid {2-[4-(1-dimethylamino-3-phenyl-propyl)-cyclohexylcarbamoyl]-ethyl}-amide], the inhibition at 10 µM in assay [1] (setting [5]) was 9%; in assay [2] (setting [6]), 2%.

These data come from patent US8106055B2, “Substituted amide compounds” (Gruenenthal GmbH, priority 2007, dated 2012).
